For data set [1], the system named is amyloid precursor protein (APP) proteolysis. Description: Repressor Release Assay (RRA). The class given is cell-based. Set-up: key to RRA data (footnote symbols): **: Inactive due to toxicity; however, this compound, at 3-4 μM, reduces Aβ levels by 50% in CHO cells transfected with human APP695 as measured by ELISA without exhibiting toxicity.; ***: Inactive; however, this compound, at 1-4 μM, reduces Aβ levels by 50% in CHO cells transfected with human APP695 as measured by ELISA without exhibiting toxicity. The settings on record: for fold induction at 20 µg/mL: Cricetulus griseus, CHO-K1, all compounds tested at 20 μg/mL, luciferase activity over diluent control, read-out: RRA data (Fold increase of APPI). On the procedure: The beta amyloid inhibitory activity of many of the compounds of the present invention has been determined using the Repressor Release Assay (RRA). See, Table 3 below. A compound is considered active in RRA if it leads to at least a 1.5 fold increase in luciferase activity at 20 μg/mL and is non-toxic.
The compound is considered active in RRA if it leads to at least a 1.5 fold increase in APPI as measured by an increase in luciferase activity at 20 μg/mL and is non-toxic. Shuey, D. J., Sheiffele, P., Jones, D., Cockett, M. I., and Quinet, E. M. (1999) Repressor release: a useful tool for monitoring amyloid precursor protein (APP) proteolysis in mammalian cells. Society for Neuroscience Abstracts, Vol. 25, 29th Annual Meeting of Society for Neuroscience, Miami Beach, Fla., Oct. 23-28, 1999.
CHO—K1 cells are cultured in whole DMEM media (DMEM—High Glucose with 10% fetal bovine serum, 1% Non-essential Amino Acids, and 1% Penicillin-Streptomycin) at 37° C. with 5% CO2. Two million cells are plated into 10-cm dishes 24 hrs prior to transfection.
Transient transfections are completed as recommended by Gibco BRL using their Lipofectamine Plus system. First, 6 μg of pRSVO-luc and 6 μg of APP-lacI construct DNA are added to 460 μL Opti-Mem transfection media and incubated with 30 μL Plus reagent for 15 minutes. Then, a lipid mixture of 40 μL Lipofectamine reagent and 460 μL Opti-Mem transfection media is incubated with the DNA-Plus reagent mixture for 15 minutes. During the DNA-lipid incubation, the CHO—K1 cells are washed once and covered in 5.0 mL DMEM media without Penicillin-Streptomycin. The DNA-lipid preparation is then layered onto these cells and incubated at 37° C. overnight.
One and one half million transfected cells per well (100 μL total volume) are plated into sterile, opaque Packard 96-well Cultur-Plates in clear DMEM whole media (DMEM—without phenol red) and incubated at 37° C. with 5% CO2 for 3-5 hours.
Compounds are diluted using two different protocols; one protocol is used for compounds supplied neat (weighed powder in vial) and the other protocol is used for compounds supplied in solution (20 mM in DMSO in 96-well plates). For both protocols, 25 mM Hepes and 25 mM Hepes/1% DMSO are prepared fresh to be used as diluent. The Hepes/DMSO is used as the diluent control on all experimental plates.
The following Table 1 depicts the steps for compound dilution (the last step is the addition of compound to cells/media in tissue culture plate):
Because some compounds arrive in 96-well format at 20 mM, the following Table 2 represents the protocol for their dilution (an average molecular weight of these compounds was used to calculate these dilutions and as above, the last step is the addition of compound to cells/media in tissue culture plate):
Once compounds are diluted, they are applied in duplicate on cells in tissue culture plates (prepared above). Cells are incubated with compound at 37° C. with 5% CO2 for an additional 36-48 hours.
Luciferase assays (LucLite reagent, Packard) are performed and are read on a Packard TopCount instrument. Media is removed from each 96-well plate and replaced with 100 μL PBS per well (with Mg^2+ and Ca^2+). An equal volume (100 μL) of the LucLite lysis/substrate buffer is added to each well and the plates are sealed and mixed in the dark on a rotary shaker for 15-30 minutes at room temperature. Luciferase readings are then taken on the TopCount instrument. Measurements are expressed as relative light units (RLU) and are calculated and analyzed in MS Excel as follows:
Fold Increase: amount of luciferase activity (measured in relative light units) over diluent control.
SEM: standard error of the mean for fold increase.
Activity: A compound is considered active if it results in at least a 1.5 fold increase in luciferase activity at 20 μg/mL.
Toxicity: determined by loss of signal (<0.75 fold increase).

Another data set deals with beta amyloid protein. The note with it: in vivo after oral administration; cited from earlier work.
The next data set concerns beta amyloid 40. Description: Aβ40/42 ELISA Assay (Aβ40). It is filed as cell-based. The note with it: Cricetulus griseus; CHO cells carrying the APP-REP-NL plasmid, 22 hours, sandwich ELISA. In a few lines:
(§1)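 Test compounds at 2 μM and below are applied for 22 h to CHO cells stably carrying APP-REP-NL. Secreted Aβ40 or Aβ42 in conditioned medium is measured by sandwich ELISA against synthetic peptide standards, using 6E10 capture with C-terminus-specific anti-Aβ40 or anti-Aβ42 detection. Toxicity is checked by MTS read-out; EC50 reported.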
A general note: In an ELISA, binding on a coated surface is turned into a signal by an enzyme label.

Another data set relates to beta amyloid 42. Description: Aβ40/42 ELISA Assay (Aβ42). It is filed as cell-based. The settings on record: CHO cells carrying the APP-REP-NL plasmid, 22 hours, sandwich ELISA; for EC50: Cricetulus griseus. The method in brief:
as §1

As for `C[C@H](NC(=O)Cc1cc(F)cc(F)c1)C(=O)N[C@H](C(=O)OC(C)(C)C)c1ccccc1` [DAPT, reference compound], the “fold increase in luciferase activity” value in data set [1] (at 20 μg/mL) is reported as 18.5-28.1 fold increase. Further, the “beta amyloid protein levels in mice brains” value in the data set with beta amyloid protein is on record as “reduce beta amyloid protein levels”.
The term melting point denotes the temperature, or range, at which the solid turns liquid. Regarding `CCC(CC)C(NS(=O)(=O)c1ccc(Cl)s1)c1ccnn1Cc1ccc(O)cc1` (stereo not drawn) [Example 8, 5-Chloro-N-{2-ethyl-1-[1-(4-hydroxybenzyl)-1H-pyrazol-5-yl]butyl}thiophene-2-sulfonamide], the melting point fell in the range of 90 to 92 °C. For the same molecule, in data set [1] (transfected CHO-K1 cells), the fold induction at 20 µg/mL stood at 4.5.
The EC50 is the concentration needed to bring the measured effect to its halfway point. For the molecule `CCC(CC)C(NS(=O)(=O)c1ccc(Cl)s1)c1ccnn1S(=O)(=O)c1ccc(C)cc1` (stereo not drawn) [Example 9, 5-Chloro-N-(2-ethyl-1-{1-[(4-methylphenyl)sulfonyl]-1H-pyrazol-5-yl}butyl)thiophene-2-sulfonamide], the melting point was in the range of 146 to 148 °C. In data set [1] (tested at 20 μg/mL, transfected CHO-K1 cells), the “RRA data (footnote symbols)” value is “***”. In the data set on beta amyloid 40, this molecule displayed an EC50 of 3 µM. This molecule also displayed an EC50 with beta amyloid 42 of 4.5 µM.
In turn, `CCC(CC)C(NS(=O)(=O)c1ccc(Cl)s1)c1ncnn1Cc1ccc(OC)cc1` (stereo not drawn) [Example 21, 5-Chloro-N-{2-ethyl-1-[1-(4-methoxybenzyl)-1H-1,2,4-triazol-5-yl]butyl}thiophene-2-sulfonamide] came in with a melting point of 136 to 137 °C. The fold induction at 20 µg/mL in data set [1] (transfected CHO-K1 cells) is 10.8. Besides, the concentration giving a half-maximal response (EC50) with beta amyloid 40 was found to be 1.4 µM. Further, it took 3.1 µM to reach a half-maximal effect with beta amyloid 42 (EC50).
As for `CC(C)C(NS(=O)(=O)c1ccc(Cl)s1)c1ncnn1Cc1ccccc1` (stereo not drawn) [Example 23, N-[1-(1-Benzyl-1H-1,2,4-triazol-5-yl)-2-methylpropyl]-5-chlorothiophene-2-sulfonamide], the melting point fell in the range of 138 to 139 °C. The fold induction at 20 µg/mL in data set [1] (transfected CHO-K1 cells) came out at 1.8. In addition, a half-maximal effect with beta amyloid 40 (EC50) was put at 5.2 µM. Besides, the EC50 with beta amyloid 42 stood at 13.2 µM.
Molecule `Cc1ccc(Cn2ncnc2C(NS(=O)(=O)c2ccc(Cl)s2)C(C)C)cc1` (stereo not drawn) [Example 24, 5-Chloro-N-{2-methyl-1-[1-(4-methylbenzyl)-1H-1,2,4-triazol-5-yl]propyl}thiophene-2-sulfonamide] yielded a melting point of 124 to 125 °C. Also, the fold induction at 20 µg/mL in data set [1] (transfected CHO-K1 cells) amounted to 1.8. Besides, in the data set with beta amyloid 40, a half-maximal effect (EC50) was put at 6 µM. In the data set on beta amyloid 42, this molecule displayed an EC50 of 11 µM.
The molecule `CC(NS(=O)(=O)c1ccc(Cl)s1)c1ncnn1Cc1ccccc1` (stereo not drawn) [Example 25, N-[1-(1-Benzyl-1H-1,2,4-triazol-5-yl)ethyl]-5-chlorothiophene-2-sulfonamide] had a melting point of 123 to 124 °C. The fold induction at 20 µg/mL in data set [1] (transfected CHO-K1 cells) is 6.6. In the data set with beta amyloid 40, this molecule returned an EC50 of 42.5 µM. Besides, in the data set with beta amyloid 42, a half-maximal effect (EC50) was put at 90 µM.
Turning to `Cc1ccc(Cn2ncnc2C(C)NS(=O)(=O)c2ccc(Cl)s2)cc1` (stereo not drawn) [Example 26, 5-Chloro-N-{1-[1-(4-methylbenzyl)-1H-1,2,4-triazol-5-yl]ethyl}thiophene-2-sulfonamide], the melting point was 116 to 117 °C. For the same molecule, the fold induction at 20 µg/mL in data set [1] (transfected CHO-K1 cells) is 5.6. This molecule returned an EC50 in the data set with beta amyloid 40 of 9.6 µM. The molecule also registered an EC50 in the data set on beta amyloid 42 of 15.5 µM.
Molecule `CCC(CC)C(NS(=O)(=O)c1ccc(Cl)s1)c1ncnn1Cc1ccc(C)cc1` (stereo not drawn) [Example 27, 5-Chloro-N-{2-ethyl-1-[1-(4-methylbenzyl)-1H-1,2,4-triazol-5-yl]butyl}thiophene-2-sulfonamide] gave a melting point of 103 to 104 °C. The fold induction at 20 µg/mL in data set [1] (transfected CHO-K1 cells) stood at 13. This molecule gave an EC50 in the data set on beta amyloid 40 of 2.7 µM. In the data set on beta amyloid 42, this molecule came in with an EC50 of 6.2 µM.
As to `CC(C)C(NS(=O)(=O)c1ccc(Cl)s1)c1cccn1Cc1ccccc1` (stereo not drawn) [Example 31, N-[1-(1-Benzyl-1H-pyrrol-2-yl)-2-methylpropyl]-5-chlorothiophene-2-sulfonamide], the melting point lay in the range of 102 to 103 °C. Further, the fold induction at 20 µg/mL in data set [1] (transfected CHO-K1 cells) came out at 5.3. Besides, a half-maximal effect with beta amyloid 40 (EC50) was put at 26.7 µM. Also, in the data set on beta amyloid 42, the “Effect on Aβ42 production” value is “increase”.

These data come from patent US7674813B2, “Heterocyclic sulfonamide inhibitors of beta amyloid production containing an azole” (Wyeth, priority 2004, dated 2010).
